According to patent US20060069132A1, “Azolecarboxamide herbicides” (priority 2004, published 2006):

Assays:
velvetleaf = test: Test A pre-/postemergence herbicide test; assay type: in vivo, Abutilon theophrasti
Method in brief: (§1)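 Pre: seeded sandy loam, directed soil spray, compound in non-phytotoxic solvent + surfactant. Post: 1–2-leaf plants (2–10 cm), sprayed to runoff. Greenhouse ~10 d; visual injury vs untreated, 0–100 scale.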

[1] = tested on: small flower umbrella sedge; test: Test B flooded paddy test; assay type: in vivo, Cyperus difformis; conditions: scale 0 to 100 (0 no effect, 100 complete control)
Method in brief: (§2)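 Read-out: visual comparison with controls, scored 0 to 100, where 100 means complete control and 0 no effect. Formulated chemicals were applied postemergence to plants 2–18 cm tall (1- to 4-leaf), or to flooded-paddy plants at the 2-leaf stage, then held 13 to 15 days under glass.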

barnyardgrass [2] = test: Test B flooded paddy test; assay type: in vivo, Echinochloa crus-galli; conditions: scale 0 to 100 (0 no effect, 100 complete control)
Method in brief: as §2

ducksalad = test: Test B flooded paddy test; assay type: in vivo, Heteranthera limosa; conditions: scale 0 to 100 (0 no effect, 100 complete control)
Method in brief: as §2

large crabgrass = test: Test A pre-/postemergence herbicide test; assay type: in vivo, Digitaria sanguinalis
Method in brief: as §1

morningglory = test: Test A pre-/postemergence herbicide test; assay type: in vivo, Ipomoea spp.
Method in brief: as §1

giant foxtail = test: Test A pre-/postemergence herbicide test; assay type: in vivo, Setaria faberi
Method in brief: as §1

rice = test: Test B flooded paddy test; assay type: in vivo, Oryza sativa; conditions: scale 0 to 100 (0 no effect, 100 complete control)
Method in brief: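 Scale 0–100: zero equals no visible effect, 100 complete control, judged by eye relative to controls. Timing: 13 to 15 days in greenhouse post-treatment. Growth stage at spraying: two leaves (paddy) or one to four leaves, 2–18 cm (postemergence).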

barnyardgrass [3] = test: Test A pre-/postemergence herbicide test; assay type: in vivo, Echinochloa crus-galli
Method in brief: as §1

redroot pigweed = test: Test A pre-/postemergence herbicide test; assay type: in vivo, Amaranthus retroflexus
Method in brief: as §1

[4] = Postemergence, 125 g ai/ha, 0 to 100 scale, 0 no effect, 100 complete control
[5] = Postemergence, 500 g ai/ha, 0 to 100 scale, 0 no effect, 100 complete control
[6] = preemergence, 125 g ai/ha, visual injury, 0 to 100 scale (0 no effect, 100 complete control)
[7] = preemergence, 500 g ai/ha, visual injury, 0 to 100 scale (0 no effect, 100 complete control)

CCn1nc(C(C)(C)C)nc1C(=O)Nc1cccc(C(=O)N(C)C)c1 [Compound 448]
Velvetleaf plant response rating (velvetleaf; [4]): 60 | Velvetleaf plant response rating (velvetleaf; [5]): 80 | Velvetleaf plant response rating (velvetleaf; [6]): 15 | Velvetleaf plant response rating (velvetleaf; [7]): 85 | Sedge, Umbrella plant response rating ([1]; 125 g ai/ha): 90 | Sedge, Umbrella plant response rating ([1]; 500 g ai/ha): 90 | Barnyardgrass plant response rating (barnyardgrass [2]; 125 g ai/ha): 90 | Barnyardgrass plant response rating (barnyardgrass [2]; 500 g ai/ha): 100 | Ducksalad plant response rating (ducksalad; 125 g ai/ha): 70 | Ducksalad plant response rating (ducksalad; 500 g ai/ha): 80 | Crabgrass, Large plant response rating (large crabgrass; [4]): 75 | Crabgrass, Large plant response rating (large crabgrass; [5]): 80 | Crabgrass, Large plant response rating (large crabgrass; [6]): 45 | Crabgrass, Large plant response rating (large crabgrass; [7]): 85 | Morningglory plant response rating (morningglory; [4]): 15 | Morningglory plant response rating (morningglory; [5]): 55 | Morningglory plant response rating (morningglory; [6]): 60 | Morningglory plant response rating (morningglory; [7]): 60 | Foxtail, Giant plant response rating (giant foxtail; [4]): 85 | Foxtail, Giant plant response rating (giant foxtail; [5]): 90 | Foxtail, Giant plant response rating (giant foxtail; [6]): 80 | Foxtail, Giant plant response rating (giant foxtail; [7]): 100 | Rice plant response rating (rice; 125 g ai/ha): 80 | Rice plant response rating (rice; 500 g ai/ha): 90 | Barnyardgrass plant response rating (barnyardgrass [3]; [4]): 90 | Barnyardgrass plant response rating (barnyardgrass [3]; [5]): 90 | Barnyardgrass plant response rating (barnyardgrass [3]; [6]): 95 | Barnyardgrass plant response rating (barnyardgrass [3]; [7]): 100 | Pigweed plant response rating (redroot pigweed; [4]): 70 | Pigweed plant response rating (redroot pigweed; [5]): 90 | Pigweed plant response rating (redroot pigweed; [6]): 100 | Pigweed plant response rating (redroot pigweed; [7]): 100

CCn1nc(C(C)(C)C)nc1C(=O)Nc1cccc(OC(F)(F)F)c1 [Compound 449]
Velvetleaf plant response rating (velvetleaf; [4]): 10 | Velvetleaf plant response rating (velvetleaf; [5]): 20 | Velvetleaf plant response rating (velvetleaf; [6]): 0 | Velvetleaf plant response rating (velvetleaf; [7]): 10 | Sedge, Umbrella plant response rating ([1]; 125 g ai/ha): 30 | Sedge, Umbrella plant response rating ([1]; 500 g ai/ha): 80 | Barnyardgrass plant response rating (barnyardgrass [2]; 125 g ai/ha): 0 | Barnyardgrass plant response rating (barnyardgrass [2]; 500 g ai/ha): 30 | Ducksalad plant response rating (ducksalad; 125 g ai/ha): 20 | Ducksalad plant response rating (ducksalad; 500 g ai/ha): 70 | Crabgrass, Large plant response rating (large crabgrass; [4]): 20 | Crabgrass, Large plant response rating (large crabgrass; [5]): 30 | Crabgrass, Large plant response rating (large crabgrass; [6]): 35 | Crabgrass, Large plant response rating (large crabgrass; [7]): 80 | Morningglory plant response rating (morningglory; [4]): 5 | Morningglory plant response rating (morningglory; [5]): 15 | Morningglory plant response rating (morningglory; [6]): 0 | Morningglory plant response rating (morningglory; [7]): 5 | Foxtail, Giant plant response rating (giant foxtail; [4]): 20 | Foxtail, Giant plant response rating (giant foxtail; [5]): 50 | Foxtail, Giant plant response rating (giant foxtail; [6]): 60 | Foxtail, Giant plant response rating (giant foxtail; [7]): 90 | Rice plant response rating (rice; 125 g ai/ha): 10 | Rice plant response rating (rice; 500 g ai/ha): 50 | Barnyardgrass plant response rating (barnyardgrass [3]; [4]): 20 | Barnyardgrass plant response rating (barnyardgrass [3]; [5]): 35 | Barnyardgrass plant response rating (barnyardgrass [3]; [6]): 45 | Barnyardgrass plant response rating (barnyardgrass [3]; [7]): 90 | Pigweed plant response rating (redroot pigweed; [4]): 20 | Pigweed plant response rating (redroot pigweed; [5]): 40 | Pigweed plant response rating (redroot pigweed; [6]): 0 | Pigweed plant response rating (redroot pigweed; [7]): 50

CCc1nn(C(C)(C)C)cc1C(=O)Nc1cc(C(=S)N(C)C)ccc1F [Compound 454]
Velvetleaf plant response rating (velvetleaf; [4]): 50 | Velvetleaf plant response rating (velvetleaf; [5]): 70 | Velvetleaf plant response rating (velvetleaf; [6]): 0 | Velvetleaf plant response rating (velvetleaf; [7]): 20 | Sedge, Umbrella plant response rating ([1]; 125 g ai/ha): 60 | Sedge, Umbrella plant response rating ([1]; 500 g ai/ha): 70 | Barnyardgrass plant response rating (barnyardgrass [2]; 125 g ai/ha): 50 | Barnyardgrass plant response rating (barnyardgrass [2]; 500 g ai/ha): 90 | Ducksalad plant response rating (ducksalad; 125 g ai/ha): 50 | Ducksalad plant response rating (ducksalad; 500 g ai/ha): 70 | Crabgrass, Large plant response rating (large crabgrass; [4]): 10 | Crabgrass, Large plant response rating (large crabgrass; [5]): 70 | Crabgrass, Large plant response rating (large crabgrass; [6]): 50 | Crabgrass, Large plant response rating (large crabgrass; [7]): 85 | Morningglory plant response rating (morningglory; [4]): 10 | Morningglory plant response rating (morningglory; [5]): 50 | Morningglory plant response rating (morningglory; [6]): 0 | Morningglory plant response rating (morningglory; [7]): 20 | Foxtail, Giant plant response rating (giant foxtail; [4]): 20 | Foxtail, Giant plant response rating (giant foxtail; [5]): 70 | Foxtail, Giant plant response rating (giant foxtail; [6]): 10 | Foxtail, Giant plant response rating (giant foxtail; [7]): 85 | Rice plant response rating (rice; 125 g ai/ha): 60 | Rice plant response rating (rice; 500 g ai/ha): 80 | Barnyardgrass plant response rating (barnyardgrass [3]; [4]): 40 | Barnyardgrass plant response rating (barnyardgrass [3]; [5]): 80 | Barnyardgrass plant response rating (barnyardgrass [3]; [6]): 70 | Barnyardgrass plant response rating (barnyardgrass [3]; [7]): 85 | Pigweed plant response rating (redroot pigweed; [4]): 40 | Pigweed plant response rating (redroot pigweed; [5]): 70 | Pigweed plant response rating (redroot pigweed; [6]): 20 | Pigweed plant response rating (redroot pigweed; [7]): 90
